{"source": "patent US20080146592A1", "about": "“Method of Treating Preeclampsia Employing Metolazone” (priority 2003, published 2008)", "tested_on": "“preeclamptic” rat model", "assay": "\"preeclamptic\" rat model (pregnant rats, saline drinking water plus weekly DOCA)", "assay_type": "in vivo, Sprague-Dawley rats", "experimental": "Metolazone is a diuretic with unique properties. At low doses, it reduces blood pressure in our “preeclamptic” rat model. Female Sprague-Dawley rats were mated and the “preeclamptic” syndrome was induced by replacing their drinking water with saline and injecting them with DOCA at weekly intervals. When hypertension had occurred (3-5 days of gestation), the animals were randomly divided into two groups: 1) Group I (PE+M), n=7, was given metolazone in a daily dose of 0.04 mg/kg body weight daily for 12-14 day by gavage and 2) Group II (PE) n=5, was simply given the vehicle (saline).", "key": {"[1]": {"settings": "rat model of preeclampsia, metolazone treatment"}}, "data": [{"smiles": "Cc1ccccc1N1C(=O)c2cc(S(N)(=O)=O)c(Cl)cc2NC1C", "note": "(stereo not shown) [Metolazone, metolazone]", "values": [{"measurement": "Urinary sodium excretion after M", "setting": "PE+M rats, 0.04 mg/kg daily by gavage, 16.2+/−6 mM/24 h prior to M administration, p>0.05", "value": 15.3, "unit": "mM/24 h"}, {"measurement": "Growth retardation (animals affected)", "setting": "PE+M rats, seen in four of the five vehicle PE animals", "value": "none"}, {"measurement": "Weight gain versus vehicle group", "setting": "PE+M versus PE rats", "value": "similar"}, {"measurement": "Blood pressure in the PE+M animals after treatment (mean)", "setting": "metolazone 0.04 mg/kg body weight daily for 12-14 day by gavage, before treatment 119+/−3 mm Hg, vehicle PE rats 121+/−7 mm Hg, p<0.01", "value": "100+/−16 mm/Hg"}, {"measurement": "Effect on intrauterine growth restriction", "setting": "[1]", "value": "beneficial effect"}, {"measurement": "Influence on pup number and development", "setting": "[1]", "value": "positive influence"}, {"measurement": "Volume contraction", "setting": "rat model of preeclampsia, non-diuretic dose", "value": "without causing volume contraction"}]}]}
